Laboratory results taken from patent publication US10787462B2, “Heterocyclic compound” (TAKEDA PHARMACEUTICAL COMPANY LIMITED, priority 2015, dated 2020).

The compounds below were run against T1, human RIPK1 (1-375) (Homo sapiens, UniProt Q13546) (assay: Human RIPK1 enzyme inhibitory effect (ADP-Glo Kinase Assay)). Settings: read-out: human RIPK1 enzyme inhibitory effect at 10 μM (% inhibition), 10 μM test compound; well without enzyme = 100% inhibition.
T1 construct: human RIPK1 (1-375) gene; GST; made in house; host or cells: Sf-9 insect cells
T1 sequence (Q13546 1-375): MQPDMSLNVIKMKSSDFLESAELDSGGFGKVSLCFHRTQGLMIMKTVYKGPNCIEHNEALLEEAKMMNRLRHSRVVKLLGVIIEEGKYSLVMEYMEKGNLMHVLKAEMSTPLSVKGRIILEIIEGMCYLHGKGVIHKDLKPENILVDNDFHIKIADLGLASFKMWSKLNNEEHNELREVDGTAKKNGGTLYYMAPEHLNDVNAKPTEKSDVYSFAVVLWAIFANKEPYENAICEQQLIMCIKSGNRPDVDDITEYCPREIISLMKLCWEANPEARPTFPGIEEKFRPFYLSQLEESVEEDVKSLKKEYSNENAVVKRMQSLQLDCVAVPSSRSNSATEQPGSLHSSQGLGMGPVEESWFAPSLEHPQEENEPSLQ
Assay type: biochemical
Experimental: Experimental Example 1: Human RIPK1 Enzyme Inhibitory Effect
Enzyme was prepared by transducing human RIPK1 (1-375) gene to Sf-9 insect cells, and purifying using GST affinity column, and enzyme activity evaluation was performed using the enzyme. The enzyme was used after preservation at −70° C. The RIPK1 enzyme inhibitory activity of the test compound was measured using ADP-Glo™ Kinase Assay (Promega) according the following experiment methods. The test compound diluted with assay buffer (25 mM HEPES (pH 7.5), 10 mM MgCl2, 0.01% Tween-20, 2 mM DTT) was added to 384 well plate by each 2 μL. Next, RIPK1 enzyme solution diluted with the assay buffer was added thereto by each 2 μL, and the mixture was incubated at room temperature for 20 min. After the incubation, 0.6 mM ATP solution was added thereto by each 2 μL to initiate an enzyme reaction. The mixture was incubated at room temperature for 120 min, and ADP-Glo solution prepared according to Promega protocol was added to the 384 well plate by each 3 μL, and the reaction was performed at room temperature for 40 min. Then, Kinase-Detection solution was added to the 384 well plate by each 6 μL, and the reaction was performed at room temperature for 40 min. After the reaction, the luminescence intensity was measured by plate reader Envision (PerkinElmer).

| inhibition at 10 µM [%] | Structure (SMILES) |
| --- | --- |
| 100 | CN1C(=O)[C@@H](N2CCc3cn(Cc4ccccc4)nc3C2=O)COc2ccccc21 [Example 1, (3S)-3-(2-benzyl-7-oxo-2,4,5,7-tetrahydro-6H-pyrazolo[3,4-c]pyridin-6-yl)-5-methyl-2,3-dihydro-1,5-benzoxazepin-4(5H)-one] |
| 97 | O=C1Nc2ccccc2CCC1N1CCc2cn(Cc3ccccc3)nc2C1=O (centres unmarked) [Example 3, 3-(2-benzyl-7-oxo-2,4,5,7-tetrahydro-6H-pyrazolo[3,4-c]pyridin-6-yl)-1,3,4,5-tetrahydro-2H-1-benzazepin-2-one] |
| 96 | CN1C(=O)C(n2ccc3cn(Cc4ccccc4)nc3c2=O)CCc2ccccc21 (centres unmarked) [Example 6, 3-(2-benzyl-7-oxo-2,7-dihydro-6H-pyrazolo[3,4-c]pyridin-6-yl)-1-methyl-1,3,4,5-tetrahydro-2H-1-benzazepin-2-one] |
| 100 | CN1C(=O)[C@@H](N2CCc3cn(Cc4ccccc4F)nc3C2=O)COc2ccccc21 [Example 9, (3S)-3-(2-(2-fluorobenzyl)-7-oxo-2,4,5,7-tetrahydro-6H-pyrazolo[3,4-c]pyridin-6-yl)-5-methyl-2,3-dihydro-1,5-benzoxazepin-4(5H)-one] |
| 99 | CN1C(=O)[C@@H](N2CCc3cn(Cc4ccccc4)nc3C2=O)COc2cc(C#N)ccc21 [Example 13, (3S)-3-(2-benzyl-7-oxo-2,4,5,7-tetrahydro-6H-pyrazolo[3,4-c]pyridin-6-yl)-5-methyl-4-oxo-2,3,4,5-tetrahydro-1,5-benzoxazepine-8-carbonitrile] |
| 100 | CN1C(=O)[C@@H](N2CCc3cn(Cc4ccccc4)nc3C2=O)COc2ccc(C#N)cc21 [Example 14, (3S)-3-(2-benzyl-7-oxo-2,4,5,7-tetrahydro-6H-pyrazolo[3,4-c]pyridin-6-yl)-5-methyl-4-oxo-2,3,4,5-tetrahydro-1,5-benzoxazepine-7-carbonitrile] |
| 99 | CN1C(=O)[C@@H](N2CCc3cn(Cc4ccccc4)nc3C2=O)CSc2ccccc21 [Example 19, (3R)-3-(2-benzyl-7-oxo-2,4,5,7-tetrahydro-6H-pyrazolo[3,4-c]pyridin-6-yl)-5-methyl-2,3-dihydro-1,5-benzothiazepin-4(5H)-one] |
| 100 | CN1C(=O)[C@@H](N2CCc3cn(Cc4ccc(Cl)cc4)nc3C2=O)COc2ccccc21 [Example 20, (3S)-3-(2-(4-chlorobenzyl)-7-oxo-2,4,5,7-tetrahydro-6H-pyrazolo[3,4-c]pyridin-6-yl)-5-methyl-2,3-dihydro-1,5-benzoxazepin-4(5H)-one] |
| 100 | CC(c1ccccc1)n1cc2c(n1)C(=O)N([C@H]1COc3ccccc3N(C)C1=O)CC2 (stereo partly drawn) [Example 21, (3S)-5-methyl-3-(7-oxo-2-(1-phenylethyl)-2,4,5,7-tetrahydro-6H-pyrazolo[3,4-c]pyridin-6-yl)-2,3-dihydro-1,5-benzoxazepin-4(5H)-one] |
| 100 | Cc1ccccc1Cn1cc2c(n1)C(=O)N([C@H]1COc3ccccc3N(C)C1=O)CC2 [Example 22, (3S)-5-methyl-3-(2-(2-methylbenzyl)-7-oxo-2,4,5,7-tetrahydro-6 H-pyrazolo[3,4-c]pyridin-6-yl)-2,3-dihydro-1,5-benzoxazepin-4(5H)-one] |
| 91 | CN1C(=O)[C@@H](N2CCc3cn(CCc4ccccc4)nc3C2=O)COc2ccccc21 [Example 23, (3S)-5-methyl-3-(7-oxo-2-(2-phenylethyl)-2,4,5,7-tetrahydro-6H-pyrazolo[3,4-c]pyridin-6-yl)-2,3-dihydro-1,5-benzoxazepin-4(5H)-one] |

More lines, now with the values behind:

| Structure (SMILES) | inhibition at 10 µM [%] |
| --- | --- |
| CN1C(=O)[C@@H](N2CCCn3nc(Cc4ccccc4)nc3C2=O)COc2ccccc21 [Example 2, (3S)-3-(2-benzyl-9-oxo-6,7-dihydro-5H-[1,2,4]triazolo[1,5-a][1,4]diazepin-8(9H)-yl)-5-methyl-2,3-dihydro-1,5-benzoxazepin-4(5H)-one] | 91 |
| O=C1Nc2ccccc2CCC1N1Cc2cn(Cc3ccccc3)nc2C1=O (centres unmarked) [Example 4, 3-(2-benzyl-6-oxo-2,6-dihydropyrrolo[3,4-c]pyrazol-5(4H)-yl)-1,3,4,5-tetrahydro-2H-1-benzazepin-2-one] | 80 |
| O=C1Nc2ccccc2CCC1n1ccc2cn(Cc3ccccc3)nc2c1=O (centres unmarked) [Example 5, 3-(2-benzyl-7-oxo-2,7-dihydro-6H-pyrazolo[3,4-c]pyridin-6-yl)-1,3,4,5-tetrahydro-2H-1-benzazepin-2-one] | 88 |
| CN1C(=O)[C@@H](N2CCn3cc(Cc4ccccc4)nc3C2=O)COc2ccccc21 [Example 7, (3S)-3-(2-benzyl-8-oxo-5,6-dihydroimidazo[1,2-a]pyrazin-7(8H)-yl)-5-methyl-2,3-dihydro-1,5-benzoxazepin-4(5H)-one] | 91 |
| CN1C(=O)[C@@H](N2CCn3nc(Cc4ccccc4)nc3C2=O)COc2ccccc21 [Example 8, (3S)-3-(2-benzyl-8-oxo-5,6-dihydro[1,2,4]triazolo[1,5-a]pyrazin-7(8H)-yl)-5-methyl-2,3-dihydro-1,5-benzoxazepin-4(5H)-one] | 98 |
| CN1C(=O)[C@@H](N2CCc3c(nn(Cc4ccccc4)c3Br)C2=O)COc2ccccc21 [Example 10, (3S)-3-(2-benzyl-3-bromo-7-oxo-2,4,5,7-tetrahydro-6H-pyrazolo[3,4-c]pyridin-6-yl)-5-methyl-2,3-dihydro-1,5-benzoxazepin-4(5H)-one] | 98 |
| Cc1c2c(nn1Cc1ccccc1)C(=O)N([C@H]1COc3ccccc3N(C)C1=O)CC2 [Example 11, (3S)-3-(2-benzyl-3-methyl-7-oxo-2,4,5,7-tetrahydro-6H-pyrazolo[3,4-c]pyridin-6-yl)-5-methyl-2,3-dihydro-1,5-benzoxazepin-4(5H)-one] | 100 |
| CN1C(=O)[C@@H](N2CCc3c(nn(Cc4ccccc4)c3C#N)C2=O)COc2ccccc21 [Example 12, 2-benzyl-6-((3S)-5-methyl-4-oxo-2,3,4,5-tetrahydro-1,5-benzoxazepin-3-yl)-7-oxo-4,5,6,7-tetrahydro-2H-pyrazolo[3,4-c]pyridine-3-carbonitrile] | 100 |
| O=C1Nc2ccccc2CCC1N1Cc2sc(Cc3ccccc3)nc2C1=O (centres unmarked) [Example 15, 3-(2-benzyl-4-oxo-4,6-dihydro-5H-pyrrolo[3,4-d][1,3]thiazol-5-yl)-1,3,4,5-tetrahydro-2H-1-benzazepin-2-one] | 91 |
| CN1C(=O)[C@@H](N2CCc3sc(Cc4ccccc4)nc3C2=O)COc2ccccc21 [Example 16, (3S)-3-(2-benzyl-4-oxo-6,7-dihydro[1,3]thiazolo[4,5-c]pyridin-5(4H)-yl)-5-methyl-2,3-dihydro-1,5-benzoxazepin-4(5H)-one] | 98 |
| CN1C(=O)[C@@H](N2CCc3ccc(Cc4ccccc4)nc3C2=O)COc2ccccc21 [Example 17, (3S)-3-(2-benzyl-8-oxo-5,8-dihydro-1,7-naphthyridin-7(6H)-yl)-5-methyl-2,3-dihydro-1,5-benzoxazepin-4(5H)-one] | 97 |
| O=C1Nc2ccccc2CCC1N1CCn2nc(Cc3ccccc3)cc2C1=O (centres unmarked) [Example 18, 3-(2-benzyl-4-oxo-6,7-dihydropyrazolo[1,5-a]pyrazin-5(4H)-yl)-1,3,4,5-tetrahydro-2H-1-benzazepin-2-one] | 72 |
